The results in this text go back to ChEMBL document CHEMBL5393452, “Mettl3 inhibitory compounds” (2020).

Test [1] concerns the target N6-adenosine-methyltransferase catalytic subunit (Homo sapiens, UniProt Q86U44). Kind of test: Inhibition of METTL3 in human MOLM-13 cells assessed as reduction in m6A methylation level at 0.1 to 50 uM measured by NanoDrop spectrophotomery analysis. In kind it is cell-based. The note with it: dose 0.1-50 µM.
Test [2] deals with MOLM-13. Briefly: Antiproliferative activity against human MOLM-13 cells incubated for 6 days by CellTiter-Glo assay. In kind it is functional, cell-based. The note with it: MOLM-13, 144 h. Background: In ATP-based viability assays light output follows the ATP content of the culture.
Test [3] relates to MOLM-13. Kind of test: Antiproliferative activity against IFN-gamma-treated human MOLM-13 cells incubated for 7 days by CellTiter-Glo assay. The class given is functional, cell-based. Particulars: MOLM-13, 168 h.
The test system of another test is Kasumi 1. Kind of test: Antiproliferative activity against IFN-gamma-treated human Kasumi 1 cells incubated for 6 days by CellTiter-Glo assay. Particulars: Kasumi 1, 144 h. The class given is functional, cell-based.
The test system of a further test is NOMO-1. Briefly: Antiproliferative activity against IFN-gamma-treated human NOMO-1 cells incubated for 6 days by CellTiter-Glo assay. Particulars: NOMO-1, 144 h. In kind it is functional, cell-based.
For another test, the system named is THP-1. Briefly: Antiproliferative activity against IFN-gamma-treated human THP-1 cells incubated for 7 days by CellTiter-Glo assay. Particulars: THP-1, 168 h. The class given is functional, cell-based.
In the next test the test system is KCL-22. Kind of test: Antiproliferative activity against IFN-gamma-treated human KCL-22 cells incubated for 6 days by CellTiter-Glo assay. The class given is functional, cell-based. The note with it: KCL-22, 144 h.
Another test deals with Caov-3 cell line. Kind of test: Antiproliferative activity against human Caov-3 cells incubated for 120 hrs by CellTiter-Glo assay. In kind it is functional, cell-based. Particulars: Caov-3, 120 h.

The source made the active and inactive calls. The rule behind the calls is not given here.

Sequence of N6-adenosine-methyltransferase catalytic subunit (Q86U44 whole entry): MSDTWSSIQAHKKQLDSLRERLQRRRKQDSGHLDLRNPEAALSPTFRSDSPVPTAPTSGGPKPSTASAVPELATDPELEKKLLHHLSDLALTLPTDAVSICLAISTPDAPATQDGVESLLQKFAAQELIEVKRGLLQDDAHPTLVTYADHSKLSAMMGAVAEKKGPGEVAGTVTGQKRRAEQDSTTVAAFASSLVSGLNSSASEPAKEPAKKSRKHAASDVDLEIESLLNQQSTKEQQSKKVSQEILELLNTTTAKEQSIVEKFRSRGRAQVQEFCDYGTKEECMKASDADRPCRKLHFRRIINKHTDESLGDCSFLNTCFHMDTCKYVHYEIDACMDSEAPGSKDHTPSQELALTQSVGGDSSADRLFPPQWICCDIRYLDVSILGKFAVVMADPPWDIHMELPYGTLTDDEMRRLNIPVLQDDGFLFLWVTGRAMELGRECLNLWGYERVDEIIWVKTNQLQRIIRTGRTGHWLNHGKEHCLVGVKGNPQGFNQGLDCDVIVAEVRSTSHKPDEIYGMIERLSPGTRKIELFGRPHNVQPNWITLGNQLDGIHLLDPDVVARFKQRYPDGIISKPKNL

Consider `Cc1ccc2nc(CNC(=O)c3cc(=O)n4ccccc4n3)cn2c1`, for which, in test [1], the inhibition entry was “Active”.

`O=C(c1cc(-c2cn(Cc3cn4cc(CNCC5CCC5)ccc4n3)nn2)c2cn[nH]c2c1)N1CCOCC1` had a concentration for half-maximal inhibition (IC50) with MOLM-13 [2] of 30 µM. In other words, the double-digit micromolar range.

`CN(C)C(=O)c1cc(-c2cn(Cc3cn4cc(CNCC5CCC5)ccc4n3)nn2)c2cn[nH]c2c1` had an IC50 in the test on MOLM-13 [2] of 30 µM. That is a double-digit micromolar value.

Molecule `O=C(NCc1cn2cc(CNCCCc3ccccc3)ccc2n1)c1cc(=O)n2ccccc2n1` registered an IC50 in the test with MOLM-13 [2] of 4.64 µM. Against the preceding molecule, the IC50 is about 6.5-fold lower.

For the molecule `CC(C)(O)CNCc1ccc2nc(CNC(=O)c3cc(=O)n4ccccc4n3)cn2c1`, in the test with MOLM-13 [2], the IC50 worked out at 30 µM. This IC50 lies about 6.5-fold higher than the previous one.

In the case of `N#CCC(NCC1CCC1)c1ccc2nc(CNC(=O)c3cc(=O)n4ccccc4n3)cn2c1` (stereo not given), the IC50 in the test on MOLM-13 [2] was found to be 30 µM.

Take `O=C(NCc1cn2cc(CNCC3CC4(CC4)C3)ccc2n1)c1cc(=O)n2ccccc2n1`: in the test with MOLM-13 [2], the IC50 was 30 µM.

For `Oc1cc(-c2cn(Cc3cn4cc(CNCC5(O)CCC5)ccc4n3)nn2)c2cn[nH]c2c1`, the IC50 in the test with MOLM-13 [2] worked out at 30 µM.

`O=C(NCc1cn2cc(CCNCc3ccccc3)ccc2n1)c1cc(=O)n2ccccc2n1` displayed an IC50 in the test on MOLM-13 [2] of 30 µM.

In the test on MOLM-13 [2], `CN(Cc1ccccc1)Cc1ccc2nc(CNC(=O)c3cc(=O)n4ccccc4n3)cn2c1` had an IC50 of 30 µM.

On to `O=C(O)c1cc(-c2cn(Cc3cn4cc(CNCC5CCC5)ccc4n3)nn2)c2cn[nH]c2c1`, for which the IC50 with MOLM-13 [2] amounted to 30 µM. This counts as double-digit micromolar.

In the test with MOLM-13 [2], `O=C(NCc1cn2cc(CNC3CCC3)ccc2n1)c1cc(=O)n2ccccc2n1` returned an IC50 of 30 µM. This counts as double-digit micromolar.

In the case of `O=C(NCc1cn2cc(CNCCC3CC(F)(F)C3)ccc2n1)c1cc(=O)n2ccccc2n1`, in the test with MOLM-13 [2], the IC50 is 30 µM.

In turn, `NC(=O)c1cc(-c2cn(Cc3cn4cc(CNCC5CCC5)ccc4n3)nn2)c2cn[nH]c2c1` had an IC50 in the test with MOLM-13 [2] of 30 µM.

On to `COC(C)(C)CNCc1ccc2nc(CNC(=O)c3cc(=O)n4ccccc4n3)cn2c1`, for which the IC50 with MOLM-13 [2] was determined as 30 µM.

`O=C(NCc1cn2cc(CNCCc3ccccc3)ccc2n1)c1cc(=O)n2ccccc2n1` gave an IC50 in the test with MOLM-13 [2] of 3.9 µM.

Turning to `O=C(NCc1cn2cc(CNCc3ccccc3)ccc2n1)c1cc(=O)n2ccccc2n1`, the half-inhibitory concentration (IC50) in the test on MOLM-13 [2] turned out to be 3.59 µM; in the test on MOLM-13 [3], 0.847 µM; in the test with Kasumi 1 it was 1.89 µM; with NOMO-1, 6.55 µM; in the test with THP-1, 2.12 µM; in the test with KCL-22, 14 µM.

In turn, `CC(C)(C)NCc1ccc2nc(CNC(=O)c3cc(=O)n4ccccc4n3)cn2c1` gave an IC50 in the test with MOLM-13 [2] of 30 µM.

On to `O=C(NCc1cn2cc(CNCC34CC(C3)C4)ccc2n1)c1cc(=O)n2ccccc2n1`, for which the half-maximal inhibitory concentration (IC50) was determined as 1.33 µM in the test on MOLM-13 [2] and 0.296 µM in the test on Caov-3 cell line.

In general, IC50 refers to the concentration at which inhibition is half-maximal. Low values mean higher potency, high ones lower potency.
